Experimental data reported in ChEMBL document CHEMBL1201862, “PubChem BioAssay data set” (2004).
Active and inactive are the calls of the source.

Tests used:
[1] = microbe, parasite or virus in culture; format: functional; conditions: Mycobacterium tuberculosis
[2] = system: H9c2; assay: cells; format: functional, cell-based; conditions: Rattus norvegicus, H9c2, Myocardium;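 note: confirmatory concentration-response retest of ultra-high-throughput screening hits for modulation of myocardial damage; cell death induced by hydrogen peroxide oxidative stress; compound pretreatment for 60 min then peroxide exposure for 2 h; potency is for protecting the cells against peroxide damage rather than for killing them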
[3] = target: T1, Calpain-2 catalytic subunit (Sus scrofa, UniProt P43367); assay: pig calpain II inhibitor potency, dose response, biochemical, fluorogenic peptide substrate (AID 1420); format: functional
T1 sequence (P43367 whole entry): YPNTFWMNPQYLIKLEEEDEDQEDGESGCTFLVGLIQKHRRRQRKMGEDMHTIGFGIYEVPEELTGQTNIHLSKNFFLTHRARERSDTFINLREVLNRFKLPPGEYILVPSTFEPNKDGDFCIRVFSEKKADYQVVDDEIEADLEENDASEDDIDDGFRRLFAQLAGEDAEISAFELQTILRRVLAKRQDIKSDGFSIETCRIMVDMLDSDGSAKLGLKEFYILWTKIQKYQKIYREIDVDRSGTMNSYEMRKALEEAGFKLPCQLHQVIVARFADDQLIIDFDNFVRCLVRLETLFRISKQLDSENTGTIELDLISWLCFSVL

[4] = target: Heat shock protein HSP 90-alpha (Homo sapiens, UniProt P07900); format: functional, organism-based
[5] = Luminescence Cell-Based Dose Retest to Confirm Inhibitors of Cancer Stem Cells. [Related pubchem assays (depositor defined):AID2717, AID2721]; format: functional; conditions: Homo sapiens
[6] = system: Streptococcus; assay: Group A Streptococcus viability loss, dose response, counter-screen for streptokinase expression inhibitor project, luminescence, BacTiterGlo (AID 1915); format: functional, organism-based;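 note: potency for reduction of bacterial viability or growth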
[7] = system: Streptococcus sp. 'group A'; assay: growth inhibition of control SK(-) GAS strain, dose response, counter-screen for streptokinase expression inhibitor project, luminescence, kanamycin, BacTiterGlo, confirmation (AID 1900); format: functional, organism-based
[8] = target: Cytochrome P450 3A4 (Homo sapiens, UniProt P08684);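 note: CYP3A4 tested as one member of a cytochrome P450 panel screen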
Chain of Cytochrome P450 3A4 (P08684 whole entry): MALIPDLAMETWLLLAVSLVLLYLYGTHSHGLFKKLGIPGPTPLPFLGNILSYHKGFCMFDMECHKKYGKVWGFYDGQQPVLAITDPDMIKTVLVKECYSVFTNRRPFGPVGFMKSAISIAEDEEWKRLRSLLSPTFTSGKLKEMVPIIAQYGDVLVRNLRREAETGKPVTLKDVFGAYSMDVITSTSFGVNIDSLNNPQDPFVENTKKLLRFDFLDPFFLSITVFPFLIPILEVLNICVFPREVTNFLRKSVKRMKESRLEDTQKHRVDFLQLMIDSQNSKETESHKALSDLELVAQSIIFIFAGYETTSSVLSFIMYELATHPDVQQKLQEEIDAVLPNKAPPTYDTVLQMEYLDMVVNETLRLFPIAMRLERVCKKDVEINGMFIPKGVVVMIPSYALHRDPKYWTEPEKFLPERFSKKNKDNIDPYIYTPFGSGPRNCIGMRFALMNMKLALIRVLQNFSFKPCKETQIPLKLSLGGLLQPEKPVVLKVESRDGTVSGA

[9] = target: Cytochrome P450 2D6 (Homo sapiens, UniProt P10635);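 note: CYP2D6 member of a cytochrome P450 panel assay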
Chain of Cytochrome P450 2D6 (P10635 whole entry): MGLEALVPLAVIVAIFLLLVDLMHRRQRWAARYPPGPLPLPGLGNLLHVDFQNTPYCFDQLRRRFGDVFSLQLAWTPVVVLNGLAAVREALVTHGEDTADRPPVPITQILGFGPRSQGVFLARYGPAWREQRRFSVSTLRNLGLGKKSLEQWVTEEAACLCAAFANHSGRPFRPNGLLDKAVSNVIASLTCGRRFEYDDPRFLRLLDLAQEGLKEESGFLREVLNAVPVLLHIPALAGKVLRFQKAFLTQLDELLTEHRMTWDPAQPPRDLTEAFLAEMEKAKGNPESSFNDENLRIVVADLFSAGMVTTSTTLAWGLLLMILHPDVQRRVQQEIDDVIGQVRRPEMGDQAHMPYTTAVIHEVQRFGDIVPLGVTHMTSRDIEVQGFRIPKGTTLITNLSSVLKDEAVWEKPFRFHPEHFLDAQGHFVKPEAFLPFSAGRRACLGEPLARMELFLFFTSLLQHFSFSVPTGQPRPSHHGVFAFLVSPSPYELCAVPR

[10] = target: T2, Ubiquitin-conjugating enzyme E2 N (Homo sapiens, UniProt P61088); format: functional;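 note: Dose-response confirmation in a TR-FRET assay detecting UBC13-driven polyubiquitin chain formation, inhibition measured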
T2 sequence (P61088 whole entry): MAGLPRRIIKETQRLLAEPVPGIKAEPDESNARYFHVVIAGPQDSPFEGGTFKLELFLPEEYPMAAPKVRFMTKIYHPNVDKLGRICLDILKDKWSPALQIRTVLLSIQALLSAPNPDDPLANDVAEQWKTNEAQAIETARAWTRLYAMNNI

[11] = system: INS1; assay: beta cell apoptosis inhibitors, cytokine rescue, dose response, luminescence, retest (AID 449756); format: functional, cell-based; conditions: Rattus norvegicus;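 note: cell death triggered by IL-1 beta plus TNF-alpha plus IFN-gamma mixture; protective hits raise ATP signal compared with cytokine alone wells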
[12] = target: Cytochrome P450 2C9 (Homo sapiens, UniProt P11712)
Chain of Cytochrome P450 2C9 (P11712 whole entry): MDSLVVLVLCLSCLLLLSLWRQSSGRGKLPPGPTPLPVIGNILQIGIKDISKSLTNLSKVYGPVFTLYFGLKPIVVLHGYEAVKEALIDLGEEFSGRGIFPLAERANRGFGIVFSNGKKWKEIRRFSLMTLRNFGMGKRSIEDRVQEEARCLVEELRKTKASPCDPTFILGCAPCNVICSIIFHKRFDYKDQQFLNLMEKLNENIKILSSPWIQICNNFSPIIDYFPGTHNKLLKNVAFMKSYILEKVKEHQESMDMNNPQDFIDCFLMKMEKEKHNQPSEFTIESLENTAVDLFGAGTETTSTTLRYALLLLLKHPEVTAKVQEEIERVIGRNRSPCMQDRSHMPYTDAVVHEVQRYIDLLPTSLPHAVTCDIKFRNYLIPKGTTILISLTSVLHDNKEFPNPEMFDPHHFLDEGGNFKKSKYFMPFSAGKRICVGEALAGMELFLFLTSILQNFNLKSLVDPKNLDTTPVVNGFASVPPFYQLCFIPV

[13] = target: T3, Cytochrome P450 1A2 (Homo sapiens, UniProt P05177);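 note: PubChem cytochrome P450 panel assay, CYP1A2 panel member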
T3 sequence (P05177 whole entry): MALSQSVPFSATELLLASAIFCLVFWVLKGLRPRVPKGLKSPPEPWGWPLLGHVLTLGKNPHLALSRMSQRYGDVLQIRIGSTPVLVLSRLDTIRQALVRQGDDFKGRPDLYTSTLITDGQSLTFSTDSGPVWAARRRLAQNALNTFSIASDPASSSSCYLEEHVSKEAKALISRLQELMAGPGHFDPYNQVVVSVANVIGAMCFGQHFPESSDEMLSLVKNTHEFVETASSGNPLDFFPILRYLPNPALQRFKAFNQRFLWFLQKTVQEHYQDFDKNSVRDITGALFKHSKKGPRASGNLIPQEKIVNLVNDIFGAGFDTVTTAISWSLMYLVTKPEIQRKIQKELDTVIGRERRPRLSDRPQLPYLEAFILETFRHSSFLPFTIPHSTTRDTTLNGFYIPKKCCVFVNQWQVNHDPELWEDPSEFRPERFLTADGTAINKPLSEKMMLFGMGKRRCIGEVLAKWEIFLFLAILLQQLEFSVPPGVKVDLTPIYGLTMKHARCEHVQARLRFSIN

[14] = P. falciparum Dd2 growth inhibitors, dose response, SYBR Green, cherry-picked samples (AID 1159567); format: functional, cell-based
[15] = inhibitors of firefly luciferase expression or activity, dose response, H4 neuroglioma cells, luminescence (AID 1990); format: functional, cell-based
[16] = Luminescence Cell-Based Dose Response HTS to Identify Inhibitors of 5'UTR Stem-Loop Driven Prion Protein mRNA Translation in H4 Neuroglioblastoma Cells. [Related pubchem assays: 1827 (Project Summary), 1813 (Primary HTS)]; format: functional
[17] = inhibitors of SNCA 5'UTR-driven reporter translation, confirmation, H4 neuroglioma cells, luminescence (AID 1988); format: functional, cell-based
[18] = target: Cytochrome P450 2C19 (Homo sapiens, UniProt P33261); assay: Cytochrome panel assay with activity outcomes. Panel member name: p450-cyp2c19 Compounds with AC50 equal or less than 10 uM are considered active; format: functional; conditions: read-out: AC50
Chain of Cytochrome P450 2C19 (P33261 whole entry): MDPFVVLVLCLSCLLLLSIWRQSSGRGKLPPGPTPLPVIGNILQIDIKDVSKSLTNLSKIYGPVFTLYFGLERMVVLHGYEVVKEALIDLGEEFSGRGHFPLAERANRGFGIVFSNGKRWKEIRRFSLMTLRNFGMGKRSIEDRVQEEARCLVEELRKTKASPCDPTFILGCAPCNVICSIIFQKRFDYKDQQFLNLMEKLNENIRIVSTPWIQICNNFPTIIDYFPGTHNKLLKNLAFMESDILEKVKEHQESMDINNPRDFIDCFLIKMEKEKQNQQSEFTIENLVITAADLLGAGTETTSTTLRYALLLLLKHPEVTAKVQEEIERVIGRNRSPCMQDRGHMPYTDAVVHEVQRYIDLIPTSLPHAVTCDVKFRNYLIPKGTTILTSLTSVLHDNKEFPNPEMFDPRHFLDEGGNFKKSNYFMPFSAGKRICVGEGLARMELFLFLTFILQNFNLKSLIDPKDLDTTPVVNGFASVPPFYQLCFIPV

[19] = target: T4, Heat shock factor protein 1 (Mus musculus, UniProt P38532); assay: HSF1 potentiators in luciferase reporter cells, confirmation, cell-based, NIH3T3, luminescence, dose retest (AID 435004); format: functional;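 note: stress induced by proteasome inhibitor MG132 added 30 min after compound; luciferase reporter driven by HSF1 response element in NIH3T3 cells; actives raise luminescence as potentiators of the MG132 stress response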
T4 sequence (P38532 whole entry): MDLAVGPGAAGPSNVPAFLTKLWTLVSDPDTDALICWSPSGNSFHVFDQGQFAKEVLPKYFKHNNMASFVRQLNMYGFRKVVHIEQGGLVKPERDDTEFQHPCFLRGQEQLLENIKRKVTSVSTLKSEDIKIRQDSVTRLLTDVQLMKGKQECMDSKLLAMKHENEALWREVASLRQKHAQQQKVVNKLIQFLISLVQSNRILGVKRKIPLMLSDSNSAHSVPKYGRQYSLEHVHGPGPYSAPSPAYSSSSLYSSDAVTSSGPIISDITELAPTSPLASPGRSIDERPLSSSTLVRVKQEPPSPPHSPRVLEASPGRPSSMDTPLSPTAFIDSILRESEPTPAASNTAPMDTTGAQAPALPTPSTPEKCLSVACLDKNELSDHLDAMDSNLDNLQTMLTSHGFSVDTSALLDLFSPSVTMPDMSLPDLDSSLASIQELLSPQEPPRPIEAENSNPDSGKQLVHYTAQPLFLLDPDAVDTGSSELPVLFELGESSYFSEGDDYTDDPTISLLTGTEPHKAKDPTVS

[20] = target: Fatty acid synthase (Homo sapiens, UniProt P49327); assay: FAS thioesterase domain inhibitors, dose response, biochemical, kinetic fluorescence intensity (AID 624326); format: functional;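 note: rate of fluorescence rise from hydrolysis of a fluorogenic O-methyl fluorescein ester substrate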
Chain of Fatty acid synthase (P49327 whole entry, the tested form may be a part): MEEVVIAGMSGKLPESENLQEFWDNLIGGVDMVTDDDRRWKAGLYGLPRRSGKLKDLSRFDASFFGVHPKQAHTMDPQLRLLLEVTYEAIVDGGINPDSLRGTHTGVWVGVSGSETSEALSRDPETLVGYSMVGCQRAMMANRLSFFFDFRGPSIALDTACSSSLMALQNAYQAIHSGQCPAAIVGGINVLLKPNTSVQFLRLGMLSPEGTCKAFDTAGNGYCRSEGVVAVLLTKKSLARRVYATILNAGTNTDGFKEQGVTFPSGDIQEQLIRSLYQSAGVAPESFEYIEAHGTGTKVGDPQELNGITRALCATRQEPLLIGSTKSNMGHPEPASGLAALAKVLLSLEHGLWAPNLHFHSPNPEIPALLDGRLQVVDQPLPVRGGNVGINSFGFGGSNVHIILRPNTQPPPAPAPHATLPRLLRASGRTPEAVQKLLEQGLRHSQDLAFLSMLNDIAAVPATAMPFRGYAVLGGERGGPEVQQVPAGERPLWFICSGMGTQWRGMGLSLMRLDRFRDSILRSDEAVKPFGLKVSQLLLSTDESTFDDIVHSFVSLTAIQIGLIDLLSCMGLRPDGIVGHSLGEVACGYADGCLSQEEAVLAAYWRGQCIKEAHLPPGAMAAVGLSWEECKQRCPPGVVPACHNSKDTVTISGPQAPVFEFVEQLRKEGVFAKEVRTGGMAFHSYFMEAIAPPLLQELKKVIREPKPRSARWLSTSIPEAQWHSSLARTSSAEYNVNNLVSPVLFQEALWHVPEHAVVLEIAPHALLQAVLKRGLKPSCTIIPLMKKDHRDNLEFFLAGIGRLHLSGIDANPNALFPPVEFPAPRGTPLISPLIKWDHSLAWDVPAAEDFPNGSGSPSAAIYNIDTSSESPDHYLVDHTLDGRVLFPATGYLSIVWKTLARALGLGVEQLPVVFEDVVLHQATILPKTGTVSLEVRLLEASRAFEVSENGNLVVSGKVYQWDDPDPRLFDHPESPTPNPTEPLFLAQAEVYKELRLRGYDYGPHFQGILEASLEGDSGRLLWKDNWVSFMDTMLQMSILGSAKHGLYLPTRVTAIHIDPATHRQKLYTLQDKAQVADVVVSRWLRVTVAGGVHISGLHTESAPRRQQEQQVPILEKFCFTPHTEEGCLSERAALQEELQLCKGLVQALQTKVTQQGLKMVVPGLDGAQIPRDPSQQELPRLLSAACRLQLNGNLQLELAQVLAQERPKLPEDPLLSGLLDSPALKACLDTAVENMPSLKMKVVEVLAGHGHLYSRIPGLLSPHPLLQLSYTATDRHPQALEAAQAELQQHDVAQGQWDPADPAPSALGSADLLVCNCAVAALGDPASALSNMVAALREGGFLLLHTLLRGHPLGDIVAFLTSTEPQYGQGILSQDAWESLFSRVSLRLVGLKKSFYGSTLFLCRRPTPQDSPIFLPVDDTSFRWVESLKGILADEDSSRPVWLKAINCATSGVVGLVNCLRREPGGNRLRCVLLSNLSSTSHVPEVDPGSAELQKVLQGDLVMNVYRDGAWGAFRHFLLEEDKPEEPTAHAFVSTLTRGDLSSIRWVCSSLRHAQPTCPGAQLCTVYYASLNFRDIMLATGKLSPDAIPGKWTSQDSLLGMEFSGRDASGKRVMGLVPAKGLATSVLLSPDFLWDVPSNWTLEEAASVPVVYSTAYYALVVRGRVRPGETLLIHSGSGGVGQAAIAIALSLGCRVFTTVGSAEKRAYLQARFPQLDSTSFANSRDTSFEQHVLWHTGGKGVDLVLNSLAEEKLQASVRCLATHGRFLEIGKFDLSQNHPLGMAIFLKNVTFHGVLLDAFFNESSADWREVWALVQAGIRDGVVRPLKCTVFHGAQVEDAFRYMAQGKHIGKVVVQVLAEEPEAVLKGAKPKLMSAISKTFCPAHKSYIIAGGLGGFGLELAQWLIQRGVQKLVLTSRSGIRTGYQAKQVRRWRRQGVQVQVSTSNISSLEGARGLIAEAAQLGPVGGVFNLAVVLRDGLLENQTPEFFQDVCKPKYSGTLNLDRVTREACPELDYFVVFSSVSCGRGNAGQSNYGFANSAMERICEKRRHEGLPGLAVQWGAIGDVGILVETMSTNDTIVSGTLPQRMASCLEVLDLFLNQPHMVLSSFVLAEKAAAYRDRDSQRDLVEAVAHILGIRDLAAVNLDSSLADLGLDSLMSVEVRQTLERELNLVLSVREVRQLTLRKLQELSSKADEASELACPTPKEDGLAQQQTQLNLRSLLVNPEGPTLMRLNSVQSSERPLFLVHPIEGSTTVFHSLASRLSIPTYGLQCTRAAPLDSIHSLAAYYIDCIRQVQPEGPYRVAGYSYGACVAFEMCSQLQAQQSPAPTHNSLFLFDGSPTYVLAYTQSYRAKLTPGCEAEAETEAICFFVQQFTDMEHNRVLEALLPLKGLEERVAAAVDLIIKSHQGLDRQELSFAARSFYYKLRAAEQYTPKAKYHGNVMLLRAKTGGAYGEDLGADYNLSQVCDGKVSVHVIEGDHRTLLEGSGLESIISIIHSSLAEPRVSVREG

## CCOC(=O)c1ccc(/N=C2/S/C(=C\c3cc(C)n(-c4cccnc4)c3C)C(=O)N2C)cc1
[1]
  CC50: > 40 µM (active)

## O=C(Nc1ccccc1)c1nc[nH]c1C(=O)NCCCCNC(=O)c1nc[nH]c1C(=O)Nc1ccccc1
[2]
  IC50: > 79 µM (inactive)

## CC(C)C(=O)Nc1ncc(Cc2ccc(Cl)cc2)s1
[3]
  IC50: 5.63 µM (not active)

## FC(F)(F)c1nnc2ccc(NCc3ccccc3)nn12
[3]
  IC50: 2.23 µM (active)

## Oc1ccccc1C1=NN(c2ccccc2)C(c2ccccc2)C1 (stereo unspecified)
[4]
  AC50: 4.3 µM (active)
[5]
  AC50: 1.29 µM (active)
[6]
  EC50: 6.93 µM (active)
[7]
  EC50: 4.06 µM (active)

## CN1CCN(c2nc(-c3ccccc3C(F)(F)F)nc3ccccc23)CC1
[8]
  AC50: 20 µM (inconclusive)
[9]
  AC50: 39.8 µM (inconclusive)

## CSCCC(NC(=O)c1ccccc1Cl)C(=O)NNC(=O)c1csc(N2CCOCC2)n1 (stereo unspecified)
[10]
  IC50: > 20 µM (inactive)

## O=C(NCC1CCCO1)c1cc([N+](=O)[O-])ccc1N1CCC(Cc2ccccc2)CC1 (stereo unspecified)
[4]
  AC50: 4.28 µM (active)

## O[C@@H](C1=C/C(=C\c2ccncc2)c2ccccc21)c1ccncc1
[9]
  AC50: 1.58 µM (inconclusive)

## CC(C)n1nc(C(=O)OCC(=O)c2c[nH]c3ccccc23)c2ccccc2c1=O
[3]
  IC50: 0.91 µM (not active)
[2]
  IC50: 27.3 µM (active)

## CCOC(=O)C1CCN(C(c2cc3c(C)ccc(C)c3nc2O)c2nnnn2C2CCCCC2)CC1 (stereo unspecified)
[2]
  IC50: > 79 µM (inactive)

## Cc1ccc(C(C(=O)NCC2CCCO2)N(C(=O)c2snc(C(N)=O)c2N)c2ccc(C)c(C)c2)o1 (stereo unspecified)
[10]
  IC50: > 20 µM (inactive)

## Cc1cc(C(=O)N/N=C/c2c(CO)cnc(C)c2O)c2ccccc2n1
[2]
  IC50: > 79 µM (inactive)

## CN(Cc1ccccc1)C(=O)c1nc2ccccn2c1CN1CCCC1c1nccs1 (stereo unspecified)
[11]
  AC50: > 260 µM (inactive)

## Cc1c(CCC(=O)NCCCn2ccnc2)c(=O)oc2c(C)c3occ(C(C)(C)C)c3cc12
[1]
  CC50: 22.1 µM (active)

## Cc1noc(C)c1C(=O)OCC(=O)NC(c1ccccc1)c1ccccc1
[9]
  AC50: 3.16 µM (inconclusive)

## CCOC(=O)c1ccc(NC(=O)NCc2cccnc2)cc1
[11]
  AC50: 2.09 µM (active)

## O=C(c1ccco1)N1CCC[C@@]2(CCN(c3ccccc3)C2)C1
[9]
  AC50: 20 µM (inconclusive)

## CCCCNC(=S)N(C)/N=C/c1ccc2c(c1)OCO2
[1]
  CC50: > 40 µM (active)
[5]
  AC50: 2.04 µM (active)

## N#Cc1cccc(-c2nc3cnc(Nc4ccccc4)nc3n(C[C@H]3CCCO3)c2=O)c1
[12]
  AC50: 10 µM (inconclusive)
[9]
  AC50: 1 µM (inconclusive)
[13]
  AC50: 2 µM (inconclusive)

## CCCC#Cc1ccc(CC[C@H]2O[C@H]3CC[C@H](CO)O[C@H]3C[C@@H]2n2cc(C(C)(C)O)nn2)cc1
[14]
  AC50: 16.8 µM (active)

## CCc1c(C2(O)CCCCC2)[nH]c2ccc(C(F)(F)F)cc12
[1]
  CC50: 27.1 µM (active)
[15]
  EC50: 60.5 µM (active)
[16]
  EC50: > 120 µM (not active)
[5]
  AC50: 2.64 µM (active)
[17]
  EC50: 8.44 µM (active)

## CCc1ccc(N(C(=O)c2ccoc2C)C(C(=O)NC2CCCC2)c2ccc(OC)cc2)cc1 (stereo unspecified)
[8]
  AC50: 1.26 µM (inconclusive)
[9]
  AC50: 15.8 µM (inconclusive)

## O=C(NCc1ccccc1Cl)c1ccc2c(=O)n(CCCN3CCCC3=O)c(=S)[nH]c2c1
[8]
  AC50: 15.8 µM (inconclusive)
[9]
  AC50: 22.4 µM (inconclusive)

## N#Cc1cccc(-c2ccc([C@@H]3[C@@H]4CN(C(=O)C5CCC5)C[C@H]3N4)cc2)c1
[14]
  AC50: 3.71 µM (active)

## C[C@H]1CN([C@@H](C)CO)C(=O)c2c(c3ccccc3n2C)-c2ccccc2CO[C@@H]1CN(C)Cc1cccc(O)c1
[14]
  AC50: 3.24 µM (active)

## COc1ccccc1N(C)S(=O)(=O)c1ccc(C(=O)Nc2ccc3nc(C)sc3c2)cc1
[1]
  CC50: 38.1 µM (active)

## Cc1ccc(-c2noc(CCC(=O)Nc3ccccc3N3CCN(C)CC3)n2)cc1
[10]
  IC50: > 20 µM (inactive)

## COc1ccc(/N=C/c2cc(Cc3ccccc3Cl)cc([N+](=O)[O-])c2O)cc1OC
[4]
  AC50: 1.6 µM (active)

## NC(=O)c1cccc(Nc2nc(C(N)COCc3ccccc3)cs2)n1 (stereo unspecified)
[2]
  IC50: 19.8 µM (active)

## CC1CCN(c2nc3nonc3nc2Nc2ccc(F)cc2)CC1
[3]
  IC50: 11.7 µM (not active)

## O=[N+]([O-])c1cc(-n2cnnn2)ccc1N1CCC(Cc2ccccc2)CC1
[4]
  AC50: 4.38 µM (active)

## COc1ccccc1CN1CCCC2(CCN(C(=O)c3c(C)noc3C)CC2)C1
[8]
  AC50: 10 µM (inconclusive)
[9]
  AC50: 12.6 µM (inconclusive)

## O=C(CCc1nc(O)c2ccccc2n1)NNC(=O)COc1cccc(F)c1
[2]
  IC50: > 79 µM (inactive)

## Oc1nc(NCc2ccccc2)nc2c1CCCC2
[2]
  IC50: 52.3 µM (inactive)

## CCn1c(SCC(=O)N2CCN(S(=O)(=O)c3ccccc3)CC2)nnc1-c1cccs1
[18]
  AC50: 22.4 µM (inconclusive)
[9]
  AC50: 17.8 µM (inconclusive)

## Cc1ccc(S(=O)(=O)N(C)c2ccc(C)c([N+](=O)[O-])c2)cc1
[3]
  IC50: 18.8 µM (not active)
[19]
  EC50: > 260 µM (inactive)

## O=C(COC(=O)Cc1nnc(O)c2ccccc12)Nc1ccc(Cl)cn1
[2]
  IC50: > 79 µM (inactive)

## CC(C)NC(=O)N1[C@H](C#N)[C@H](c2ccccc2-c2ccc(F)cc2)[C@@H]1CO
[14]
  AC50: 3.57 µM (active)

## CCCc1nc2oc(C(=O)OCC)c(N)c2c2c1COC(C)(C)C2
[1]
  CC50: > 40 µM (active)

## CCn1c2ccccc2c2cc(/N=C3/SC(CC(=O)Nc4ccccc4)C(=O)N3C)ccc21 (stereo unspecified)
[9]
  AC50: 7.08 µM (inconclusive)
[13]
  AC50: 3.16 µM (inconclusive)

## C[C@@H]1CN([C@@H](C)CO)C(=O)c2c(c3ccccc3n2C)-c2ccccc2CO[C@H]1CN(C)Cc1cccc(C(=O)Nc2ccccc2N)c1
[14]
  AC50: 2.81 µM (active)

## CN(C(=O)Nc1ccc(Cl)cc1Cl)[C@H]1c2cc(Br)ccc2OC[C@H]1CO
[20]
  IC50: 11.3 µM (active)

## C#CCNC(=O)C1=C[C@H](c2cn(C(C)=O)c3ccccc23)C[C@H](OCc2ccc(CO)cc2)O1
[10]
  IC50: > 20 µM (inactive)

## COC(=O)[C@@]1(Cc2ccccc2)[C@H]2c3cc(C(=O)N4CCCC4)n(CCN4CNCC4=O)c3C[C@H]2CN1C(=O)c1ccccc1
[8]
  AC50: 1.58 µM (inconclusive)
[18]
  AC50: 39.8 µM (inconclusive)
[9]
  AC50: 39.8 µM (inconclusive)
[13]
  AC50: 25.1 µM (inconclusive)
